# pIC50: −log10 of the molar value.
# How the values were obtained:
# [1] = tested on: UTMC2; assay: Cell proliferation assay, MTT, UTMC2; assay type: cell-based; details: Homo sapiens, UTMC2, 72 h, standard 3-day proliferation assay
# From the text: (§1) IGF1R and other tyrosine kinase inhibitors can inhibit the proliferation of certain cancer cell lines indicating their possible therapeutic utility for treating the corresponding cancer types. Cancer cell lines of interest and control normal lines, including CHO, HEK293, BA/F3, COLO205, PC3, DU145, MCF7, Panc1, ACHN, Hep G2, H460, K562, TT, U87-MG, CAOV-3, SK-MEL5, Karpas 299 and human multiple myeloma cell lines H929, MM1s, MM1r, UTMC2, CPM2, KMS11, My5, KMS12PE, My7, JJN3, KMS18, U266, SKMM2, RPMI-8226 are plated in white, clear-bottomed 384-well cell culture plates at 2500-5000 cells per well and supplied with dilutions of tested compounds After a desired period of time (typically 3 days), the number of viable cells is quantitated by using Cell Titer-Glo Luminescent Cell Viability Assay (Promega), a cell proliferation assay system based on detection of total amount of ATP present as a measure of cell metabolic activity. The plated cells are mixed with the Cell Titer-Glo developing reagent and counted in a luminescence multiwell plate reader according to the standard manufacturer's protocol to generate IC50 curves for cell proliferation inhibition. […] Alternatively, viable cells are quantitated by using the conventional colorimetric MTT assay. […] The formazan is then solubilized, and the concentration determined by optical density at 570 nm. […]
# [2] = tested on: KMS11; assay: Cell proliferation assay, MTT, KMS11; assay type: cell-based; details: Homo sapiens, KMS-11, 72 h, standard 3-day proliferation assay
# From the text: as §1
# [3] = tested on: MM1s; assay: Cell proliferation assay, MTT, MM1s; assay type: cell-based; details: Homo sapiens, MM1.S, 72 h, standard 3-day proliferation assay
# From the text: as §1
# [4] = tested on: My7; assay: Cell proliferation assay, MTT, My7; assay type: cell-based; details: Homo sapiens, 72 h, standard 3-day proliferation assay
# From the text: as §1
# [5] = tested on: RPMI-8226; assay: Cell proliferation assay, MTT, RPMI-8226; assay type: cell-based; details: Homo sapiens, RPMI-8226, 72 h, standard 3-day proliferation assay
# From the text: as §1
# [6] = tested on: CHO (chinese hamster ovary); assay: Cell proliferation assay, MTT, CHO; assay type: cell-based; details: Cricetulus griseus, 72 h, standard 3-day proliferation assay
# From the text: as §1
# [7] = tested on: My5; assay: Cell proliferation assay, MTT, My5; assay type: cell-based; details: Homo sapiens, 72 h, standard 3-day proliferation assay
# From the text: as §1
# [8] = tested on: HEK293 (human normal embryonic kidney); assay: Cell proliferation assay, MTT, HEK293; assay type: cell-based; details: HEK293, 72 h, standard 3-day proliferation assay, read-out: HEK IC50
# From the text: as §1
# [9] = tested on: KMS18; assay: Cell proliferation assay, MTT, KMS18; assay type: cell-based; details: Homo sapiens, KMS18, 72 h, standard 3-day proliferation assay
# From the text: as §1
# [10] = tested on: CPM2; assay: Cell proliferation assay, MTT, CPM2; assay type: cell-based; details: Homo sapiens, 72 h, standard 3-day proliferation assay
# From the text: as §1
# [11] = tested on: U266; assay: Cell proliferation assay, MTT, U266; assay type: cell-based; details: Homo sapiens, U-266, 72 h, standard 3-day proliferation assay
# From the text: as §1
# [12] = tested on: JJN3; assay: Cell proliferation assay, MTT, JJN3; assay type: cell-based; details: Homo sapiens, JJN-3, 72 h, standard 3-day proliferation assay
# From the text: as §1
# [13] = tested on: H929; assay: Cell proliferation assay, MTT, H929; assay type: cell-based; details: Homo sapiens, NCI-H929, 72 h, standard 3-day proliferation assay
# From the text: as §1
# [14] = tested on: SKMM2; assay: Cell proliferation assay, MTT, SKMM2; assay type: cell-based; details: Homo sapiens, SK-MM-2, 72 h, standard 3-day proliferation assay
# From the text: as §1
# [15] = tested on: KMS12PE; assay: Cell proliferation assay, MTT, KMS12PE; assay type: cell-based; details: Homo sapiens, KMS-12-PE, 72 h, standard 3-day proliferation assay
# From the text: as §1
# [16] = tested on: MM1r; assay: Cell proliferation assay, MTT, MM1r; assay type: cell-based; details: Homo sapiens, MM.1R, 72 h, standard 3-day proliferation assay
# From the text: as §1
# [17] = tested on: human myeloma cell lines; assay: Effect on apoptosis, PI/annexin V staining; assay type: cell-based; details: sensitive cell lines; 48 or 72 hours; 0.6 μM and 1.8 μM
# Protocol: (§2) FIG. 7 depicts the effect of compound (2a) (i.e., CRL 103142) and compound (2b) (i.e., CRL 130323) on apoptosis. 4 human myeloma cell lines (3 sensitive and 1 resistant) were incubated for 48 or 72 hrs with indicated concentrations of compound (2a) and compound (2b) and effect on apoptosis was assessed by PI/annexin V staining. Results are reported as percentage of viable (PI−/annexin V−) cells.
# (§3) 4 human myeloma cell lines (3 sensitive and 1 resistant) were incubated for 48 or 72 hours with the compounds of the invention, including compounds (2a) and (2b), having a concentration of 0.6 μM and 1.8 μM and effect on apoptosis was assessed by PI/annexin V staining. Results are reported as percentage of viable (PI−/annexin V−) cells.
# [18] = tested on: normal cell line HEK293; assay: Myeloma-selective cytotoxicity (FIG. 11), HEK293; assay type: cell-based, human
# From the text: (§4) All the above were active in the multiple myeloma cell line H929.
# [19] = tested on: myeloma cells of primary patient sample; assay: Induction of apoptosis in primary patient sample; assay type: cell-based, human; details: for apoptosis of myeloma cells: primary patient sample
# From the text: (§5) FIG. 8 depicts the apoptosis of myeloma cells induced by the compounds of the invention. Primary patient sample exposed to DMSO or compound (2a) (i.e., CRL 103142) or compound (2b) (i.e., CRL 130323) for 24 hr and indicated concentrations. LUQ-% viable myeloma cells and LLQ-% viable non-myeloma cells.
# as §5, with “9” for “8”, “48” for “24”
# as §5, with “10” for “8”, “96” for “24”
# Primary patient sample exposed to DMSO or the compounds of the invention for 24 hours, 48 hours, and 96 hours and with a concentration of 0.4 μM, 0.6 μM, 1.2 μM, and 1.8 μM. LUQ-% viable myeloma cells and LLQ-% viable non-myeloma cells. The compounds of the invention included significant apoptosis of myeloma cells (FIGS. 8-10).
# [20] = tested on: multiple myeloma cell line H929; assay: Myeloma-selective cytotoxicity (FIG. 11), H929; assay type: cell-based, human
# From the text: as §4
# [21] = tested on: normal cell line CHO; assay: Myeloma-selective cytotoxicity (FIG. 11), CHO; assay type: cell-based, chinese hamster
# From the text: as §4
# [22] = tested on: human myeloma cell lines; assay: Effect on cell cycle, PI staining; assay type: cell-based; details: sensitive cell lines; 24 hours; 0.6 μM and 1.8 μM
# Protocol: as §2, with “6” for “7”, “cell cycle.” for “apoptosis.”, “24” for “48 or 72”, “cell cycle” for “apoptosis”, “PI” for “PI/annexin V”, “cells in G0-G1 or S phase.” for “viable (PI−/annexin V−) cells.”
# as §3, with “24” for “48 or 72”, “with” for “having”, “cell cycle” for “apoptosis”, “PI” for “PI/annexin V”, “cells in G0-G1 or S phase.” for “viable (PI−/annexin V−) cells.”
# [23] = target: T1, IGF1R tyrosine kinase (Homo sapiens, UniProt P08069); assay: IGF1R tyrosine kinase assay (Kinase-Glo ATP depletion or PT66/PT100 AlphaScreen); assay type: biochemical; details: FIG. 12
# T1 construct: purified recombinant, 6×His- or GST-tagged kinase domain fragments of the corresponding RTKs expressed in baculovirus system; host or cells: baculovirus system
# T1 sequence (P08069 999-1274 limits assumed): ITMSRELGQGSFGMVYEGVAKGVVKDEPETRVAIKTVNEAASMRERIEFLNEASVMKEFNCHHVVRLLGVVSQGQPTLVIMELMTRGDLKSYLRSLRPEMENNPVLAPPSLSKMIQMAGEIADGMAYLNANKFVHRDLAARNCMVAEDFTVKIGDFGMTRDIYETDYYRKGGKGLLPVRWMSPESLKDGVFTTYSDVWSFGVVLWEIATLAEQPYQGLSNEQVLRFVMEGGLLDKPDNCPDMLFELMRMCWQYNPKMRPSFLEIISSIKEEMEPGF
# Protocol: To determine inhibition of several tyrosine kinases, such as IGF1R, InsR, Alk, TrkA and Jak2, kinase assays are conducted using either Kinase-Glo (Promega) or AlphaScreen (PerkinElmer) kinase assay platforms. The Kinase-Glo Luminescent Kinase Assay is a homogeneous method for measuring kinase activity by determining the amount of ATP remaining after a kinase reaction. The luminescent signal is proportional to the amount of ATP and inversely proportional to the amount of kinase activity. Tyrosine kinase PT66 AlphaScreen Assay is a high-sensitivity homogeneous, anti-phosphotyrosine antibody-mediated luminescent proximity method measuring incorporation of phosphate in synthetic poly(Glu-Tyr) substrate. The kinase preparations used consist of purified recombinant, 6×His- or GST-tagged kinase domain fragments of the corresponding RTKs expressed in baculovirus system.
# The IGF1R tyrosine kinase is assayed in Kinase-Glo ATP depletion assay using the synthetic polymer poly(Glu-Tyr, 4:1) (Sigma Chemicals) as a phosphoacceptor substrate. Each reaction mixture consists of a total volume of 10 μl and contains 40 ng of the enzyme, 5 μg of poly(Glu-Tyr), 10 μM of ATP and variable concentrations of test compounds. The mixtures also contain 50 mM Tris-HCl, pH 7.5; 5 mM MgCl2; 5 mM MnCl2; 2 mM DTT and 0.01% Tween 20. The reaction mixtures are incubated at 37° C. for 60 minutes and residual concentration of ATP in the mixture is determined by adding luciferase-containing Kinase-Glo (Promega) development reagent and counting luminescence levels using Fusion Universal Microplate Analyzer (PerkinElmer). Tested compounds are dissolved in dimethyl sulfoxide to a stock concentration of 10 mM and are typically evaluated in the assay at eight concentrations in 1 nM to 20 μM range, each in quadruplicate. […] IC50 values are derived by non-linear regression analysis using Prism 3.0 software (Graphpad Software). […]
# [24] = Toxicity in animals, body weight (FIG. 13); assay type: in vivo; details: highest doses tested
smiles,measurement,setting,value
CC(=O)CCN1CCC(N2Cc3cc4nc(-c5c(NCC(=O)COc6ccc(C)cc6C)cc[nH]c5=O)[nH]c4cc3C2=O)CC1,pIC50,[1],> 6.30
same,pIC50,[2],4.70 to 5.30
same,pIC50,[3],5.30 to 6.00
same,pIC50,[4],4.70 to 5.30
same,pIC50,[5],4.70 to 5.30
same,pIC50,[6],≤ 4.70
same,pIC50,[7],4.70 to 5.30
same,pIC50,[8],≤ 4.70
same,pIC50,[9],4.70 to 5.30
same,pIC50,[10],5.30 to 6.00
same,pIC50,[11],5.30 to 6.00
same,pIC50,[12],4.70 to 5.30
same,pIC50,[13],5.30 to 6.00
same,pIC50,[14],4.70 to 5.30
same,pIC50,[15],4.70 to 5.30
same,pIC50,[16],5.30 to 6.00
Cc1ccc(OC[C@H](O)CNc2cc[nH]c(=O)c2-c2nc3cc4c(cc3[nH]2)CN(C2CCN(C)CC2)C4=O)c(C)c1 [2a],effect on apoptosis (percentage of viable PI−/annexin V− cells),[17],induced significant apoptosis
same,toxicity in normal cell line HEK293,[18],demonstrated toxicity
same,apoptosis of myeloma cells,[19]; 24 hr,induced significant apoptosis of myeloma cells
same,apoptosis of myeloma cells,[19]; 48 hr,induced significant apoptosis of myeloma cells
same,apoptosis of myeloma cells,[19]; 96 hr,induced significant apoptosis of myeloma cells
same,activity in multiple myeloma cell line H929,[20],active
same,toxicity in normal cell line CHO,[21],demonstrated toxicity
same,effect on cell cycle (percentage of cells in G0-G1 or S phase),[22],induced significant G1 growth arrest
same,IGF-1R potency in vitro,[23],same potency range as known preclinical compounds
Cc1ccc(OC[C@H](O)CNc2cc[nH]c(=O)c2-c2nc3cc4c(cc3[nH]2)CN(C2CCN(CCS(C)(=O)=O)CC2)C4=O)c(C)c1 [2b],effect on apoptosis (percentage of viable PI−/annexin V− cells),[17],induced significant apoptosis
same,toxicity in normal cell line HEK293,[18],did not demonstrate toxicity
same,"selectivity, viable myeloma cells versus viable non-myeloma cells","[19]; primary patient sample, 24, 48 and 96 hours",more selective
same,apoptosis of myeloma cells,[19]; 24 hr,induced significant apoptosis of myeloma cells
same,apoptosis of myeloma cells,[19]; 48 hr,induced significant apoptosis of myeloma cells
same,apoptosis of myeloma cells,[19]; 96 hr,induced significant apoptosis of myeloma cells
same,activity in multiple myeloma cell line H929,[20],active
same,selectivity towards multiple myeloma lines,[20],highly selective
same,toxicity in normal cell line CHO,[21],did not demonstrate toxicity
same,effect on cell cycle (percentage of cells in G0-G1 or S phase),[22],induced significant G1 growth arrest
same,toxicity in animals (body weight),[24],no signs of toxicity
same,toxicity in animals (body weight),[24]; listed as CRL130323,no observable toxicity
same,IGF-1R potency in vitro,[23],same potency range as known preclinical compounds
same,IGF-1R potency in vitro,[23]; listed as CRL130323,comparable IGF-1R potency

# Source: patent publication US9290503B2, “Tricyclic compound derivatives useful in the treatment of neoplastic diseases, inflammatory disorders and immunomodulatory disorders” (CHEMBRIDGE CORPORATION, priority 2006, dated 2016)
